Measured values as given in patent US11730689B2, “Process for treating hair” (Davines S.p.A., priority 2018, dated 2023).

Experiments:
[1] = Color fastness to washing (Example 1): evaluation of rinsing waters; set-up: species or system human; details: 5 g of 2% water solution, 10 minutes at room temperature; rinsed 5 times with Sodium Laureth-2 Sulfate solution pH 7.5; FIG. 1; six swatches incl. non-treated
Experimental: The coloring formulation was applied in a quantity sufficient to color all the fibers of the swatches, then wrapped in an aluminum foil and left on for 35 minutes.
Afterwards, the swatches were rinsed with Davines SOLU shampoo of the Essential Hair Care line, directly on the previously wet swatches and rinsed for 30 seconds in order to remove the mixture.
Then, swatches are treated as follows:
5 g of 2% liposol maleate (Sabinsa Corporation) water solution,
5 g of 2% Olaplex® Bond Multiplier No 1 water solution.
A non-treated swatch is used as reference.
The specific treatments are left on hair fora period of 10 minutes at room temperature.
After 10 minutes, the swatches are rinsed 5 times with a Sodium Laureth-2 Sulfate (Zetesol Les 2/SL®) solution to pH 7.5. The rinsing procedure consists on providing 1.5 g of the surfactant solution per swatch, putting it on the swatch, and massaging for 10 seconds, then rinsing.
The rinsing treatment is carried out dipping the individual swatch for 10 times in a beaker containing 100 g water, in order to collect the rinsing water.

[2] = Protection of hair from bleaching treatment (Example 4), sensorial analysis; details: 3.5 g of a 12% water solution added to bleaching powder + Activator 40 vol. mixture; 30 minutes, treatment done twice
Experimental: The following specific compositions were separately added to the mixture:
a) 3.5 g of a 12% Liposol maleate (Sabinsa Corporation) water solution;
b) 3.5 g of a 12% On Protection (7% Liposol maleate and 13% maleic) water solution;
e) 3.5 g of a 12% Olaplex® Bond Multiplier No 1 water solution;
The swatches were left on for 30 minutes at room temperature wrapped in an aluminum foil.
After that, the swatches were rinsed using cold running water and carefully washed using Davines SOLU shampoo of the Essential Hair Care line.
After the left on period, the swatches were rinsed using cold running water for removing the mixture and further treated with Davines SOLU shampoo of the Essential Hair Care line.
Then, 2.5 g of the conditioner MOMO of the Essential Hair Care line are applied; left on for one minute and subsequently rinsed using cold running water.
Finally, the swatches were towel dried, dried with an airdryer and combed using a fine-tooth comb.

[3] = Hair resistance to bleaching treatment (Example 5), tensile strength test; details: 9 g (maleic acid, liposol maleate: 20% water solution) added to 20 g bleaching powder + 40 g Activator 40 vol.; 50 minutes; On Protection = 13% maleic acid and 7% Liposol maleate; five measurements, 6 cm hair, 0.5 mm/sec
Experimental: Five swatches of hair, weight and length standard, level 5, are treated with the coloration Davines Mask With Vibrachrom 4.0 mixed with the activator Davines Activator 20 vol., emulsion containing hydrogen peroxide, in a ratio of 1:1.5 as disclosed in the Davines manual and left on at room temperature for 35 minutes in a ratio of 1:1.5 as disclosed in the Davines manual.
During the left on period, the swatches were wrapped up in tinfoil and left at room temperature. After that, the swatches were rinsed with abundant running water and then washed with the Essential Hair Care SOLU shampoo of Davines line, washed and carefully dried with an airdryer.
At the end of the coloring process, the bleaching treatment starts.
Every swatch is decolored with 20 g of the bleaching powder Davines Mask Hair Bleaching Powder mixed with 40 g Davines Activator 40 vol.
Before application on the swatches, the mixtures are singularly added with the following solutions:
9 g Liposol maleate (Sabinsa Corporation)—20% water solution,
9 g Olaplex® Bond Multiplier No 1,
During the bleaching process, all the swatches are wrapped up in tinfoil, and left on for 50 minutes at room temperature.
After the left on period, the swatches are shampooed using Davines Hair Care DEDE shampoo and combed using a large-tooth comb.
A tensile strength test was carried out on all single swatches. […]

[4] = Hair fastness and easy bleaching (Example 7), tensile strength test; set-up: species or system human; details: 120 minutes
Experimental: Four swatches of human hair, weight and length level 5, are used.
The swatches are bleached using a mixture of 20 g Davines Mask Hair Bleaching Powder and 40 g Davines Activator 20 vol. to which the following compounds are added:
b) 3.5 g 12% Liposol maleate (Sabinsa Corp.) in water,
c) 3.5 g 12% Olaplex® Bond Multiplier No 1 in water,
During the bleaching process, all the swatches are wrapped up in aluminum foil, and afterward they are left on for 120 minutes at room temperature.
After the left on period, every swatch is rinsed with abundant running water and washed with a Sodium Lauth-2 sulfate (Zetesol Les 2/SL®) 15% water solution and to a pH 7.5, and dried by combing with a large-tooth comb.
The swatches are subsequently washed until a complete removal of the product.
The Tensile Strength Test was made with a dynamometer Texture Analysis Plus (Extended Height) using pneumatic clamps.
The tensile strength of hair treated with different compositions was compared with the tensile strength of the non-bleached virgin swatch (positive reference) and the tensile strength of the swatch treated only with Davines Mask Hair Bleaching Powder without a protective agent (negative reference). Five measurements for each single 6 cm long hair, and at constant rate of 0.5 mm/sec., were made.

[5] = Reducing treatment: curl resistance to repeated washings (Example 8); details: 1.8 ml added to 100 ml Balance Curling System #1 and to 100 ml Bouclè neutralizer (maleic acid, liposol maleate as 20% solution); 40 washings with 15% Sodium laureth-2 sulfate pH 7.5
Experimental: 1) 100 ml Davines Balance Curling System #1,
3) 100 ml Davines Balance Curling System #1 added with 1.8 ml of a Liposol maleate 20% solution (Sabinsa Corporation),
(§1) 4) 100 ml Davines Balance Curling System #1 added with 1.8 ml of Olaplex® Bond Multiplier No 1,
The above described reducing formulations (2 ml per hair swatch) were applied and left on for 30 minutes.
After the left on period, the swatches were washed with hot running water for one minute and left 10 minutes towel dried on air without any treatment, in order to stabilize the treatment.
Five neutralizing solutions are prepared:
1) 100 ml neutralizing solution Davines Bouclè Biowaving System Extra Delicate Neutralizer hydrogen peroxide 2.1%,
3) 100 ml neutralizing solution Davines Bouclè Biowaving System Extra Delicate Neutralizer added with 1.8 ml of Liposol Maleate 20% water solution (Sabinsa Corporation),
4) 100 ml neutralizing solution Davines Bouclè Biowaving System Extra Delicate Neutralizer added with 1.8 ml Olaplex® Bond Multiplier No 1,
Every swatch is left on for 10 minutes at room temperature.
Directly on the swatches and without rinsing, the neutralizing treatment is repeated in the same way, leaving on for other 10 minutes, for total 20 minutes.
After the left on period, the formulation in excess is rinsed with running water and the curlers are dried with a drier for 30 minutes. […]

[6] = Reducing treatment: hair conditioning (Example 9), evaluation by skilled technicians; set-up: species or system human; details: 5 g of 2% water solution (On Protection: 10% in method, 2% in results), 2 x 7.30 minutes after reducing treatment; 5 washings
Experimental: The coloring formulation was applied mixed with Davines Activator 20 vol., hydrogen peroxide emulsion, according to the Davines operating manual, in a 1:1.5 ratio.
The color was carefully applied in a quantity sufficient to color all the fibers of the swatches, then left on for 35 minutes at room temperature.
After that, the swatches were carefully rinsed with SOLU shampoo of the Essential Hair Care Davines line, in order to eliminate the excess color.
5 grams per swatch of the reducing formulation Davines Balance Curling System #1 are applied on the wet and towel dried swatches, and left on for 30 minutes.
After the left on period, the swatches are washed with water and ready to be treated with:
1) 5 g of maleic 2% water solution,
2) 5 g Liposol Maleate (Sabinsa Corporation) 2% water solution,
3) 5 g Olaplex® Bond Multiplier No 1, 2% water solution,
All the swatches are left on at room temperature for 7.30 minutes.
This treatment is repeated without rinsing, directly on the swatches, for 7.30 minutes (overall 15 minutes).
After the left on time, the swatches are rinsed with running water to eliminate the excess product.
(§2) Then, the swatches are carefully washed with a Sodium Laureth-2 sulfate (Zetesol Les 2/SL®) 15% and to a pH of 7.5. […]

[7] = Sensory properties of hair treated with a reducing treatment after coloring (Example 10); details: 5 g of 2% water solution, 2 x 7.30 minutes after bleaching, coloring and reducing treatment; washed with Sodium Laureth-2 sulfate 15% pH 7.5
Experimental: Four swatches of level 7 natural hair, standard weight and width, are bleached two times using the Davines Mask Hair Bleaching Powder mixed with an activator, hydrogen peroxide emulsion, Davines Activator 40 vol. in a 1:2 ratio.
The above described mixture is applied on single swatches in order to obtain a homogenous distribution of the product on the hair fibers.
The swatches are covered with an aluminum foil and left on for 50 minutes at room temperature. At the end of the left on period, the swatches are rinsed and carefully washed with a shampoo of the Davines Essential Hair Care SOLU line and dried. The entire process is repeated two times until to obtain the lightening level 11 according to Davines Color Manual.
The swatches as above treated are colored with Davines Mask with Vibrachrom 10.01 mixed with Davines Activator 20 vol. in a ratio 1:1.5 as disclosed in the Davines manual.
The coloration was applied to every swatch in an amount to obtain an homogeneous distribution of the product on all the hair fibers of the single swatch.
At the end of the coloration step, after rinsing with shampoo SOLU of the Essential Hair Care line of Davines and drying, the swatches are treated with 5 g of the Davines reducing formulation called Balance Curling System #1 and left on for 30 minutes at room temperature.
Then, the swatches are rinsed with water and treated as follows: […]

[8] = Color retention after reducing treatment (Example 11), evaluation by skilled technicians; set-up: species or system human; details: added to reducing composition and to neutralizing solution (1.8 ml per 100 ml) and applied afterwards as solution in 45 ml water, 7.5 minutes
Experimental: Five hair samples from a human subject having a standard weight and a width and level 7 are colored with a Davines Mask with Vibrachrom 3.51. The coloring formulation was applied mixed with Davines Activator 20 vol., hydrogen peroxide emulsion, according to Davines operating manual, in a 1:1.5 ratios. The color was carefully applied in a quantity sufficient to give a homogeneous color to all fibers of the swatches. The mixture was left on for 35 minutes at room temperature.
After that, the swatches were carefully rinsed with shampoo Davines SOLU of the Essential Hair Care line, in order to eliminate the excess color.
After the left on period, the swatches were treated with the following reducing compositions:
1) 100 ml Davines Balance Curling System #1
as §1
On the wet and towel dried swatches, 5 grams of the above described reducing formulations are applied per swatch, and then left on for 30 minutes.
After the left on period, the swatches are washed with hot running water for 1 minute and left 10 minutes towel dried on air without any treatment, in order to stabilize the treatment.
Five neutralizing solutions are prepared: […]
The swatches were evaluated from skilled technicians as follows:

[9] = Hair resistance to reducing treatment (Example 12), tensile strength test
Experimental: Five level 5 natural hair swatches, weight and width standard, are washed with Essential Hair Care SOLU shampoo.
Then, the swatches are towel dried with adsorbing paper for removing excess water and subsequently enrolled on 1 cm diameter curlers.
2 ml of Davines Balance Curling System #1 perm are applied on all the curlers using a spout dispenser and left on for 30 minutes.
After that, every curler is rinsed with abundant water for 1 minute using cold running water.
Then, the swatches are neutralized using different neutralizing solutions:
2.5 g Davines Bouclè Biowaving System Extra Delicate Neutralizer (hydrogen peroxide 2.1%),
2.5 g liposol maleate (Sabinsa Corp.) 2% water solution,
2.5 g Olaplex® Bond Multiplier No 1, 10% water solution,
The swatches are left on for 7.30 minutes at room temperature.
Without rinsing, directly on the swatches, the application of the neutralizing solutions is repeated according to the same procedure for other 7.30 minutes, totally 15 minutes.
After the left on period, the excess product is rinsed with cold running water and the curlers are dried in an oven ISCO at 53° C.±1 for 4 hours.
The swatches are removed from the curlers and the curl sinuosity is evaluated using a camera.
as §2
Then, the tensile strength was evaluated. […]

Water solubility = assay type: physicochemical

SMILES | limpidity / color intensity of the rinsing water (ranking) [1] | silkiness, smoothness and compactness of the swatches (sensorial analysis, ranking) [2] | Tensile Strength N [3] [N] | Tensile Strength N ([4]; 3.5 g 12% in water added to 20 g bleaching powder + 40 g Activator 20 vol., On Protection = 12% Liposol maleate + 8% maleic acid, five measurements, 6 cm hair, 0.5 mm/sec) [N] | resistance to hair breakage in comparison to other treatments (in words) ([4]; 3.5 g 12% in water added to bleaching mixture) | maintenance of the deviousness of the curls after repeated washings (ranking by skilled personnel) [5] | softness and silkiness (ranking by skilled technicians) [6] | chromatic differences / color retention [7] | color retention after the reducing treatment (evaluated by skilled technicians) [8] | Tensile Strength N ([9]; 2.5 g as neutralizing solution after perm (maleic acid, liposol maleate 2%; Olaplex, On Protection 12% liposol maleate/8% maleic acid 10% water solution), 2 x 7.30 minutes, 40 washings) [N] | protection of the swatches (conclusion in words) ([9]; in comparison with Olaplex® Bond Multiplier No 1 and Davines Bouclè Biowaving System Extra Delicate Neutralizer) | solubility in water (Water solubility)
CN(C)CCNC(=O)CCCCC1CCSS1.O=C(O)/C=C\C(=O)O (stereo not drawn) [Liposol maleate, 1,2-dithioane-3-pentanamide, N-(2-dimethylamino) ethyl salified with a mole of maleic acid] | third | better in relation to compactness, silkiness and smoothness | 0.98 ± 0.11 | 1.06 ± 0.13 | clearly show an improvement | maintain the deviousness of the curls in a lower degree | regard as preferred | do not present significant chromatic differences | more intensive and vibrating | 1.04 ± 0.16 | more protected | –
O=C(O)/C=C\C(=O)O [maleic acid, cis-butendioic acid] | – | – | – | – | – | – | – | – | – | – | – | water soluble
